The pKi is the Ki on a negative log10 scale, so that one unit is a factor of ten. A higher pKi goes with a small Ki.

These results are taken from US20050054605A1, “Partial or full A1 agonists - N6 heterocyclic 5' thio substituted adenosine derivatives” (priority 1999, published 2005).

pKi: −log10 of the molar value.

For assay [1], the target named is T1, A1 receptor in DDT1 cells (Mesocricetus auratus, UniProt A0A1U8BVR4).
T1 construct: endogenous in cells; host or cells: DDT1 cells (hamster vas deferens smooth muscle cell line): membranes in A1 and A3, whole cells in A4
T1 sequence (A0A1U8BVR4 1-326): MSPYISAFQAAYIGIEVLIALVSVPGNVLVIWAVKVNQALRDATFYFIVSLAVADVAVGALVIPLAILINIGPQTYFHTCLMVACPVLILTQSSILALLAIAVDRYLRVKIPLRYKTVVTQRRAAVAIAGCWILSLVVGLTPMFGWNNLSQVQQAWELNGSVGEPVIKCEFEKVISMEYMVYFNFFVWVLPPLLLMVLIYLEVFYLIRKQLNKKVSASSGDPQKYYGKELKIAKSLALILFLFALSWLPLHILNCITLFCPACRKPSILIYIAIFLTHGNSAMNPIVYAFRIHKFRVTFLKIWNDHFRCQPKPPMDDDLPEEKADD
Description: cAMP assay (SPA) in DDT1 cells, forskolin-induced cAMP. In kind it is cell-based, hamster. The following applies: forskolin 5 μM; for Camp: rolipram 50 μM, 10 min 37° C., normalized to the full agonist CPA. The procedure: (§1) DDT cells (hamster vas deferens smooth muscle cell line) were grown as monolayers in petri dishes using Dulbecco's Modified Eagle's Medium (DMEM) containing […] amphotericin B, 100 U ml^−1 penicillin G, 0.1 mg ml^−1 streptomycin sulfate and 5% fetal bovine serum in a humidified atmosphere of 95% air and 5% CO2. Cells were subcultured twice weekly by dispersion in Hank's Balanced Salt Solution (HBSS) without the divalent cations and containing 1 mM EDTA. The cells were then seeded in growth medium at a density of 1.2×10^5 cells per plate and experiments were performed 4 days later at approximately one day preconfluence.
A scintillation proximity assay (SPA) using rabbit antibodies directed at cAMP using an added tracer of adenosine 3′,5′-cyclic phosphoric acid 2′-O-succinyl-3-[^125I]iodotyrosine methyl ester and fluoromicrospheres containing anti-rabbit specific antibodies as described by Amersham Pharmacia Biotech (Biotrak cellular communication assays). Briefly, DDT1 cells were cultured in clear bottomed 96 well microtiter plates with opaque wells at concentrations between 10^4 to 10^6 cells per well in 40 μl of HBSS at 37° C. (5% CO2 and 95% humidity). The partial or full A1 agonists (5 μl) of this invention were incubated at various concentrations with the DDT1 cells in the presence of rolipram (50 μM), and 5 μM forskolin for 10 min at 37° C. The cells were immediately lysed by treatment 5 μl of 10% dodecyltrimethylammonium bromide followed by shaking using microplate shaker. After incubation of the plate for 5 minutes, an immunoreagent solution (150 μl containing equal volumes of tracer, antiserum, and SPA fluorospheres) was added to each well followed by sealing the plate. After 15-20 h at 23° C., the amount of bound [^125I] cAMP to the fluoromicrospheres was determined by counting in a microtitre plate scintillation counter for 2 minutes. Comparison of counts with standard curves generated for cAMP using a similar protocol afforded the cAMP present after cell lysis.
(In general: cAMP levels reflect the balance of adenylyl cyclase and phosphodiesterase activity.)

Assay [2] has as its target T2, A1 receptor (Sus scrofa, UniProt I3LEN5).
T2 construct: from tissue; host or cells: pig striatum membranes
T2 sequence (I3LEN5 1-326): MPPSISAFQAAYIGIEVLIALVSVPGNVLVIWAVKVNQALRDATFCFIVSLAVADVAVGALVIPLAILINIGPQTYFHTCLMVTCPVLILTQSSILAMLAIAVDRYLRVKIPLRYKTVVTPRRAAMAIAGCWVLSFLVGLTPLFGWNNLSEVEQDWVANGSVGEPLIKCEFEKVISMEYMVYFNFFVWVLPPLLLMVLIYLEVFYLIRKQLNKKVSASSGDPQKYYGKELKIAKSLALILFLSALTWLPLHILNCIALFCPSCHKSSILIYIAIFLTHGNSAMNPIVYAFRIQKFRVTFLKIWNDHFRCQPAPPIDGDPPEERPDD
Description: Competitive binding assay, pig striatum membranes, [3H]CPX. Conditions: pig striatal membranes, antagonist [3H]CPX 2 nM, 23 C, 2 h. The protocol:
(§2) Pig striatum were prepared by homogenation in 50 mM Tris buffer (5× volume of tissue mass pH=7.4). After centrifugation at 19,000 rpm for 25 minutes at 4° C., the supernatant was discarded, and the process was repeated twice. Compositions of this invention were assayed to determine their affinity for the A1 receptor in a pig striatum membrane prep or a DDT1 membrane prep. Briefly, 0.2 mg of pig striatal membranes or DDT1 cell membranes were treated with adenosine deaminase and 50 mM Tris buffer (pH=7.4) followed by mixing. To the pig membranes was added 2 μL of serially diluted DMSO stock solution of the compounds of this invention at concentrations ranging from 100 microM to 10 nM. The control received 2 microL of DMSO alone, then the antagonist [^3H] 8-cyclopentylxanthine (CPX) for pig striatum or the agonist [^3H] 2-chloro-6-cyclopentyladenosine (CCPA) for DDT1 membranes in Tris buffer (50 mM, pH of 7.4) was added to achieve a final concentration of 2 nM. After incubation at 23 C for 2 h, then the solutions were filtered using a membrane harvester using multiple washing of the membranes (3×). The filter disks were counted in scintillation cocktail affording the amount of displacement of tritiated CPX or by the competitive binding compositions of this invention. Greater than a 5 point curve was used to generate Ki's and the number of experiments is indicated in the column marked in Table 1, below: […]

Another assay addresses T3, A1 AdoR (Mesocricetus auratus, UniProt A0A1U8BVR4).
T3 construct: endogenous in cells; host or cells: DDT1 cells (hamster vas deferens smooth muscle cell line): membranes in A1 and A3, whole cells in A4
T3 sequence (A0A1U8BVR4 1-326): T1 sequence (A0A1U8BVR4 1-326)
Description: [35S]GTPγS binding assay (A1-agonist stimulated), DDT1 membranes. Format: biochemical, hamster. The following applies: stimulated [35S]GTPγS binding normalized to the full agonist CPA. The procedure:
as §1
(§3) Attached cells were washed twice with HBSS (2×10 ml), scraped free of the plate with the aid of a rubber policeman in 5 ml of 50 mM Tris-HCl buffer pH 7.4 at 4° C. and the suspension homogenized for 10 s. The suspension was then centrifuged at 27,000×g for 10 min. The pellet was resuspended in homogenization buffer by vortexing and centrifuged as described above. The final pellet was resuspended in 1 vol of 50 mM Tris-HCl buffer pH 7.4 containing 5 mM MgCl2 for A1 AdoR assays. For the [^35S]GTPγS binding assay the final pellet was resuspended in 50 mM Tris-HCl pH 7.4 containing 5 mM MgCl2, 100 mM NaCl and 1 mM dithiothreitol. This membrane suspension was then placed in liquid nitrogen for 10 min, thawed and used for assays. The protein content was determined with a Bradford™ Assay Kit using bovine serum albumin as standard.
A1-agonist stimulated [^35S] GTPγS binding was determined by a modification of the method described by Giersckik et al. (1991) and Lorenzen et al. (1993). […] Nonspecific binding was determined by the addition of 10 μM GTPγS. […] Previous reports have shown that agonist stimulated [^35S]GTPγS binding was dependent on the presence of GDP (Gierschik et al., 1991; Lorenzen et al., 1993; Traynor & Nahorski, 1995). […] In saturation experiments, 0.5 nM [^35S]GTPγS was incubated with 0.5-1000 nM GTPγS. At the end of the incubation, each suspension was filtered and the retained radioactivity determined as described above.

Assay [3] has as its target T4, A1 receptor (Mesocricetus auratus, UniProt A0A1U8BVR4).
T4 construct: endogenous in cells; host or cells: DDT1 cells (hamster vas deferens smooth muscle cell line): membranes in A1 and A3, whole cells in A4
T4 sequence (A0A1U8BVR4 1-326): T1 sequence (A0A1U8BVR4 1-326)
Description: Competitive binding assay, DDT1 cell membranes, [3H]CCPA. Set-up: species or system hamster. Conditions: DDT1 membrane prep, agonist [3H]CCPA 2 nM, 23 C, 2 h. The procedure: as §1, §3, §2

Regarding `OC[C@H]1O[C@@H](n2cnc3c(NC4CCCC4)ncnc32)[C@H](O)[C@@H]1O` [CPA, N-6-cyclopentyladenosine, reference compound], in assay [1], the “effect on forskolin induced cAMP generation” value was “diminished the amount of forskolin induced cAMP generation back to basal levels” and the Camp was 107%.

On to `CSC[C@H]1O[C@@H](n2cnc3c(N[C@@H]4CCOC4)ncnc32)[C@H](O)[C@@H]1O` [Compound 7, 2-{6-[((3R)oxolan-3-yl)amino]purin-9-yl}(4S,5S,2R,3R)-5-(methylthiomethyl)oxolane-3,4-diol], for which the pKi on A1 receptor [2] was 6.65.

Consider `CCSC[C@H]1O[C@@H](n2cnc3c(N[C@@H]4CCOC4)ncnc32)[C@H](O)[C@@H]1O` [Compound 8, 2-{6-[((3R)oxolan-3-yl)amino]purin-9-yl}(4S,5S,2R,3R)-5-[(Ethylthio)methyl]oxolane-3,4-diol], for which, on A1 AdoR, the “GTP[…]S” value is given as 104%. For the same molecule, the Camp in assay [1] is 37%.

`CC(C)SC[C@H]1O[C@@H](n2cnc3c(N[C@@H]4CCOC4)ncnc32)[C@H](O)[C@@H]1O` [Compound 10, 2-{6-[((3R)oxolan-3-yl)amino]purin-9-yl}(4S,5S,2R,3R)-5-[(Methylethylthio)methyl]oxolane-3,4-diol] showed a negative-log Ki (pKi) on A1 receptor [2] of 6.73.

For the molecule `O[C@@H]1[C@H](O)[C@@H](CSc2ccccc2)O[C@H]1n1cnc2c(N[C@@H]3CCOC3)ncnc21` [Compound 11, 2-{6-[((3R)oxolan-3-yl)amino]purin-9-yl}(4S,5S,2R,3R)-5-(phenylthiomethyl)oxolane-3,4-diol], on A1 receptor [2], the pKi is 7.36.

In the case of `COc1ccc(SC[C@H]2O[C@@H](n3cnc4c(N[C@@H]5CCOC5)ncnc43)[C@H](O)[C@@H]2O)cc1` [Compound 12, 2-{6-[((3R)oxolan-3-yl)amino]purin-9-yl}(4S,5S,2R,3R)-5-[(4-Methoxyphenylthio)methyl]oxolane-3,4-diol], at A1 receptor [3], the pKi is 6.09. The “GTP[…]S” value at A1 AdoR is recorded as 52%. In addition, the Camp in assay [1] was −9%.

On to `O[C@@H]1[C@H](O)[C@@H](CSc2ccc(Cl)cc2)O[C@H]1n1cnc2c(N[C@@H]3CCOC3)ncnc21` [Compound 13, 2-{6-[((3R)oxolan-3-yl)amino]purin-9-yl}(4S,5S,2R,3R)-5-[(4-chlorophenylthio)methyl]oxolane-3,4-diol], for which the “GTP[…]S” value on A1 AdoR came to 69%. Besides, in assay [1], the Camp is listed as 30%.

As for `O[C@@H]1[C@H](O)[C@@H](CSc2ccc(F)cc2)O[C@H]1n1cnc2c(N[C@@H]3CCOC3)ncnc21` [Compound 14, 2-{6-[((3R)oxolan-3-yl)amino]purin-9-yl}(4S,5S,2R,3R)-5-[(4-fluorophenylthio)methyl]oxolane-3,4-diol], at A1 receptor [3], the negative-log Ki (pKi) is 6.44. Also, at A1 AdoR, the “GTP[…]S” value is given as 61%. The Camp in assay [1] is 47%.

Turning to `Cc1ccc(SC[C@H]2O[C@@H](n3cnc4c(N[C@@H]5CCOC5)ncnc43)[C@H](O)[C@@H]2O)cc1` [Compound 15, 2-{6-[((3R)oxolan-3-yl)amino]purin-9-yl}(4S,5S,2R,3R)-5-[(4-methylphenylthio)methyl]oxolane-3,4-diol], at A1 receptor [3], the pKi is 6.04. Also, at A1 AdoR, the “GTP[…]S” value came out at 48%. Also, in assay [1], the Camp stood at 22%.

`O[C@@H]1[C@H](O)[C@@H](CSc2ccc(C(F)(F)F)cc2)O[C@H]1n1cnc2c(N[C@@H]3CCOC3)ncnc21` [Compound 16, 2-{6-[((3R)oxolan-3-yl)amino]purin-9-yl}(4S,5S,2R,3R)-5-[(4-(trifluoromethyl)phenylthio)methyl]oxolane-3,4-diol] had a negative-log Ki (pKi) on A1 receptor [3] of 5.11. For the same molecule, the “GTP[…]S” value at A1 AdoR is 31%. Further, the Camp in assay [1] is reported as 22%.

Turning to `COc1ccccc1SC[C@H]1O[C@@H](n2cnc3c(N[C@@H]4CCOC4)ncnc32)[C@H](O)[C@@H]1O` [Compound 17, 2-{6-[((3R)oxolan-3-yl)amino]purin-9-yl}(4S,5S,2R,3R)-5-[(2-Methoxyphenylthio)methyl]oxolane-3,4-diol], the negative-log Ki (pKi) at A1 receptor [3] was 6.02. Also, the “GTP[…]S” value on A1 AdoR is 52%. Besides, the Camp in assay [1] is on record as 18%.
